Among the test systems are NCI/ADR-RES ovarian; RPMI-8226 leukemia; NCI-H522 lung; SK-MEL-5 melanoma; UACC-62 melanoma; HT29 colon; SW-620 colon; NCI-H23 lung; MOLT-4 leukemia; SF-539 CNS; SK-MEL-2 melanoma.
Holding throughout (experiment): growth of human tumour cells (NCI), 48 h

Twelve compounds from PubChem BioAssay (NCI) can be followed below.

Where “and” joins values, the source holds several entries; their conditions need not be identical. Identical values can stand only once.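 Values below derive from 48-hour exposures of cells grown in 96-well plates, with endpoints linearly interpolated between the two concentrations bracketing the appropriate inhibition level. At the GI50, growth is halved. TGI denotes the concentration required for complete inhibition of growth.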 Some results are limits rather than exact numbers.

In the case of `C=CCCCCCCCCC(=O)O`, the TGI amounted to 558 µM in the experiment on NCI/ADR-RES ovarian; 352 µM in the experiment with RPMI-8226 leukemia; 209 µM in the experiment with NCI-H522 lung; 183 µM in the experiment on SK-MEL-5 melanoma; 190 µM with UACC-62 melanoma; 227 µM with HT29 colon. Moreover, the TGI in the experiment on SW-620 colon was found to be 260 µM; in the experiment on NCI-H23 lung, 274 µM; in the experiment with MOLT-4 leukemia, 265 µM; with SF-539 CNS, 212 µM; in the experiment with SK-MEL-2 melanoma it was 152 µM.
`Cc1ccc(-c2cc(-c3ccco3)c(C#N)c(=O)n2C2OC(CO)C(O)C(O)C2O)cc1` (stereo not given): the TGI is over 100 µM in the experiment on RPMI-8226 leukemia; over 100 µM in the experiment on NCI-H522 lung; 45.7 µM with SK-MEL-5 melanoma; over 100 µM in the experiment with UACC-62 melanoma; over 100 µM with HT29 colon; over 100 µM in the experiment with SW-620 colon. The TGI in the experiment with NCI-H23 lung and in the experiment with MOLT-4 leukemia was over 100 µM in each case.
For the compound `CN(C(=O)c1ccc(OCCCC(=O)O)c(Cl)c1Cl)C1CCCC1`, the TGI in the experiment on NCI/ADR-RES ovarian, in the experiment with RPMI-8226 leukemia, in the experiment on NCI-H522 lung, in the experiment with SK-MEL-5 melanoma, in the experiment with UACC-62 melanoma and in the experiment on HT29 colon was over 100 µM in each case. The TGI with SW-620 colon, with NCI-H23 lung, with MOLT-4 leukemia, in the experiment with SF-539 CNS and with SK-MEL-2 melanoma was over 100 µM throughout.
On to `COc1cc(C=O)cc(O)c1O`, for which the TGI in the experiment with RPMI-8226 leukemia, in the experiment on NCI-H522 lung, in the experiment with UACC-62 melanoma, with HT29 colon, in the experiment on SW-620 colon and with NCI-H23 lung was over 100 µM each time. The TGI in the experiment on MOLT-4 leukemia and in the experiment with SF-539 CNS was over 100 µM each time.
For the compound `CCOC(=O)C(=O)NC12CC3CC(CC(C3)C1)C2`, the TGI with RPMI-8226 leukemia, with NCI-H522 lung, in the experiment with SK-MEL-5 melanoma, with UACC-62 melanoma, in the experiment with HT29 colon and with SW-620 colon was over 100 µM each time. For the same compound, the TGI in the experiment with NCI-H23 lung, in the experiment on SF-539 CNS and in the experiment with SK-MEL-2 melanoma was over 100 µM each time.
As for `COc1cccc2c1C(=O)c1c(O)c3c(c(O)c1C2=O)C[C@@](O)(C(=O)CO)CC3OC1CC(NCCCC(OC(C)=O)OC(C)=O)C(O)C(C)O1` (stereo not given in full), the GI50 in the experiment with RPMI-8226 leukemia, in the experiment on NCI-H522 lung, with SK-MEL-5 melanoma, in the experiment with UACC-62 melanoma, in the experiment with SW-620 colon and with NCI-H23 lung was under 0.0001 µM throughout. Besides, the GI50 is 0.000123 µM in the experiment with MOLT-4 leukemia, under 0.0001 µM in the experiment with SF-539 CNS and under 0.0001 µM in the experiment with SK-MEL-2 melanoma. The TGI in the experiment on RPMI-8226 leukemia was 0.000403 µM; with NCI-H522 lung it was 0.00346 µM and 0.000412 µM; in the experiment with SK-MEL-5 melanoma, 0.00028 µM; with SW-620 colon it was over 1 µM; with SF-539 CNS, 0.00445 µM and 0.00115 µM.
Take `CC(=O)Nc1ccc(Sc2nnc(NC(C)=O)s2)cc1`: the TGI in the experiment with NCI/ADR-RES ovarian, in the experiment with RPMI-8226 leukemia, in the experiment on NCI-H522 lung, in the experiment with SK-MEL-5 melanoma, with SW-620 colon and with MOLT-4 leukemia was over 100 µM each time. The compound also displayed a TGI in the experiment on SF-539 CNS of over 100 µM.
For `O=[N+]([O-])C(=C/c1cccs1)/C(=C\c1cccs1)[N+](=O)[O-]`, the TGI is 5.4 µM with NCI/ADR-RES ovarian; 1.14 µM in the experiment with RPMI-8226 leukemia; 2.94 µM in the experiment with SK-MEL-5 melanoma; 2.53 µM in the experiment with UACC-62 melanoma; 6.13 µM with HT29 colon; 21.2 µM in the experiment with SW-620 colon. Besides, the TGI was 3.52 µM in the experiment on NCI-H23 lung, 1.3 µM in the experiment with MOLT-4 leukemia, 0.417 µM in the experiment on SF-539 CNS and 6.46 µM in the experiment on SK-MEL-2 melanoma.
As to `Cn1c(=O)c(Cl)c(N=[N+]=[N-])c2ccccc21`, the TGI in the experiment on NCI/ADR-RES ovarian, in the experiment on NCI-H522 lung, in the experiment on SK-MEL-5 melanoma, in the experiment with UACC-62 melanoma, in the experiment with HT29 colon and in the experiment on SW-620 colon was over 100 µM throughout. In addition, the TGI in the experiment with NCI-H23 lung, in the experiment on MOLT-4 leukemia, with SF-539 CNS and in the experiment with SK-MEL-2 melanoma was over 100 µM throughout.
Regarding `COC1C(O)C(C)OC(OC2CCC3(C)C(CCC4C3C(O)CC3(C)C(C5=CC(=O)OC5)CCC43O)C2)C1O` (stereo not given), the TGI in the experiment on RPMI-8226 leukemia is 0.793 µM; in the experiment on NCI-H522 lung it was 0.251 µM; in the experiment with SK-MEL-5 melanoma, 0.501 µM; with UACC-62 melanoma it was 1.25 µM; with HT29 colon, 2.23 µM; with SW-620 colon, 4.9 µM. The TGI in the experiment on NCI-H23 lung was 0.308 µM; in the experiment on MOLT-4 leukemia, 0.174 µM; in the experiment with SF-539 CNS, 0.22 µM; with SK-MEL-2 melanoma, 1.59 µM.
As for `O=C1c2ccccc2C(=O)N1CC(CN1C(=O)c2ccccc2C1=O)(C(=O)OCc1ccccc1)C(=O)OCc1ccccc1`, the TGI in the experiment with NCI/ADR-RES ovarian, in the experiment with RPMI-8226 leukemia, in the experiment on NCI-H522 lung, in the experiment on SK-MEL-5 melanoma, in the experiment on UACC-62 melanoma and with HT29 colon was over 100 µM throughout. The TGI in the experiment with NCI-H23 lung, in the experiment on MOLT-4 leukemia and in the experiment with SK-MEL-2 melanoma was over 100 µM each time.
In the case of `CCOC(=O)C(OP(=O)(OCC)OCC)C(F)(F)F` (stereo not given), the TGI with RPMI-8226 leukemia, in the experiment on NCI-H522 lung, in the experiment on UACC-62 melanoma, in the experiment on HT29 colon, in the experiment with NCI-H23 lung and in the experiment with MOLT-4 leukemia was over 100 µM throughout. The TGI with SF-539 CNS and in the experiment with SK-MEL-2 melanoma was over 100 µM throughout.
